Values of other authors, collected in US7621907B2, “Implantable drug delivery system” (Alcon, Inc., priority 2002, dated 2009).
Structures can show the parent of a compound that is named as a salt.

Settings: descriptive statement, no test described

Compound	water solubility
CC(C)NCC(O)COc1ccc(CCOCC2CC2)cc1 (centres unmarked) [betaxolol HCl]	relatively high
NC(=O)Cc1cccc(C(=O)c2ccccc2)c1N [nepafenac]	relatively low
